One series has as its system A549. As to the kind of experiment: Cytotoxic activity was tested against human […] cell line A-549 (lung carcinoma). The class given is functional. The note with it: read-out: ED50 (the source's name).
In series [1] the test system is MIA PaCa-2. Description: Cytotoxic activity was tested against humanPAC-2 (pancreatic carcinoma) cell line. Type of series: functional. The note with it: Homo sapiens, read-out: ED50 (the source's name).
A short description of series [2]: Compound was tested for brine shrimp lethality (BST). The class given is organism-based. The note with it: artemia, in vivo.
For another series, the system named is PC-3. Description: Cytotoxic activity was tested against human PC-3 (prostate adenocarcinoma) cell line. Type of series: functional. The following applies: read-out: ED50 (the source's name).
Another series deals with MCF7. Description: Cytotoxic activity was tested against human MCF-7 (breast carcinoma) cell line. Type of series: functional. The following applies: read-out: ED50 (the source's name).
In the next series the test system is HT-29. As to the kind of experiment: Cytotoxic activity was tested against human HT-29 (colon adenocarcinoma) cell line. Type of series: functional. The following applies: read-out: ED50 (the source's name).
A further series concerns A498. Description: Cytotoxic activity was tested against human A-498 (Kidney carcinoma) cell line. The class given is functional. The note with it: read-out: ED50 (the source's name).
For series [3], the system named is MIA PaCa-2. As to the kind of experiment: Cytotoxic activity was tested against human PAC-2 (pancreatici carcinoma) cell line. The class given is functional. The note with it: read-out: ED50 (the source's name).

Converted amounts (≈) assume the structure as drawn.

Turning to `CCCCCCCCCCCCC(O)C1CCC(C(O)CCC(O)CC(O)CC(O)CCCC(O)CC2=CC(C)OC2=O)O1` (stereo not drawn), the EC50 was found to be 0.34 µg/mL (≈ 0.541 µM) in the series with A549; 0.77 µg/mL (≈ 1.22 µM) in the series on MIA PaCa-2 [1]; 0.0195 µg/mL (≈ 0.031 µM) in the series on PC-3; 2.26 µg/mL (≈ 3.59 µM) with MCF7; 0.78 µg/mL (≈ 1.24 µM) in the series on HT-29; 2.36 µg/mL (≈ 3.75 µM) in the series with A498. The LC50 (as a rule, the concentration lethal to half of the exposed cells or organisms) in series [2] came to 34.4 µg/mL (≈ 54.7 µM).

As to `COc1cccc2c1C(=O)c1c(O)c3c(c(O)c1C2=O)C[C@@](O)(C(=O)CO)C[C@@H]3O[C@H]1C[C@H](N)[C@H](O)[C@H](C)O1` [DOXORUBICIN], the EC50 stood at 0.0346 µg/mL (≈ 0.0637 µM) with A549; 0.33 µg/mL (≈ 0.607 µM) with PC-3; 0.43 µg/mL (≈ 0.791 µM) in the series with MCF7; 0.0896 µg/mL (≈ 0.165 µM) in the series on HT-29; 0.0335 µg/mL (≈ 0.0616 µM) with A498; 0.031 µg/mL (≈ 0.057 µM) with MIA PaCa-2 [3].

The values are drawn from ChEMBL document CHEMBL1128797, “Annohexocin, a novel mono-THF acetogenin with six hydroxyls, from Annona muricata (Annonaceae)” (Bioorg Med Chem Lett, 1995).
